For orientation: Ki means the equilibrium dissociation constant of an inhibitor or competing ligand from its target. Low readings indicate higher affinity, high ones lower affinity.

Experiment [1] deals with T1, Glutaminyl-peptide cyclotransferase (Homo sapiens, UniProt Q16769). As to the kind of experiment: Inhibition Assay (pH 6). As to the method: (§1) 10 mM compound stock solutions were prepared in DMSO. For IC50 determination compound stocks were serially diluted (1:3) in DMSO.All measurements were performed with an EnSpire Perkin Elmer multimode reader using glutaminyl-7-amino-4-methylcoumarin (H-Gin-AMC) as substrate and recombinant pyroglutamyl aminopeptidase (pGAP) as auxiliary enzyme. Reactions were carried out at ambient temperature in black 96-well half area microplates. Each sample consisted of 1 μl test compound solution or solvent (DMSO) and 49 μl QC appropriately diluted in assay buffer (50 mM Tris/HCl, pH 8.0 or 50 mM MES buffer, pH=6.0). After a 10 min preincubation at ambient temperature the enzyme reaction was started by adding 50 μl of Gln-AMC-substrate/pGAP mixture in assay buffer. Final substrate concentrations were 50 and 200 μM for measurement at pH 8.0 or 6.0, respectively. Release of flourogenic AMC were recorded at excitation/emission wavelengths of 380/460 nm. Initial velocity of the enzyme reaction was calculated by linear regression of the first 10 data points using the Enspire Manager software. Final evaluation and calculation of IC50s were performed using GraphPad Prism software.
T1 sequence (Q16769 whole entry): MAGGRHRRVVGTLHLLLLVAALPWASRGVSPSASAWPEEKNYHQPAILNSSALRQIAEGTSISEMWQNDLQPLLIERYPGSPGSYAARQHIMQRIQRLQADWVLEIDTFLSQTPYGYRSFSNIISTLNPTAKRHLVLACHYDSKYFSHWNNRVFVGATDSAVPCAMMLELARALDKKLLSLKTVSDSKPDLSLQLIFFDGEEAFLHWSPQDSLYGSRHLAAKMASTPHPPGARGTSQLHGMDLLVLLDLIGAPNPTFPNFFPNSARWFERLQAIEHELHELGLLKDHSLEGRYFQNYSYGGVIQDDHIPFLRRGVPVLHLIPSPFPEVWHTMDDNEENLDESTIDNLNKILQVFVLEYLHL

Experiment [2] addresses T1, Glutaminyl-peptide cyclotransferase. As to the kind of experiment: Inhibition Assay (pH 8.0). As to the method: as §1

With `CS(=O)(=NCc1ccc2[nH]cnc2c1)c1ccc(F)cc1` (configuration not stated) [US12384772, Compound 1285], the Ki in experiment [1] amounted to 8.05 µM; in experiment [2] it was 5.18 µM.
